# In PubChem BioAssay (NCI):
#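 Each compound was tested at five concentrations against cells in 96-well plates for 48 hours. GI50 is the concentration that inhibits growth by half. TGI is the concentration that stops growth completely.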
# What was measured:
# Experiment in all cases: inhibition of tumour cell growth, NCI panel, 48 h
# A498 renal = system: A498 renal
# ACHN renal = system: ACHN renal
# CAKI-1 renal = system: CAKI-1 renal
# HCC-2998 colon = system: HCC-2998 colon
# HCT-116 colon = system: HCT-116 colon
# HT29 colon = system: HT29 colon
# SF-295 CNS = system: SF-295 CNS
# HCT-15 colon = system: HCT-15 colon
# M14 melanoma = system: M14 melanoma
Compound,TGI (A498 renal) [µM],TGI (ACHN renal) [µM],TGI (CAKI-1 renal) [µM],TGI (HCC-2998 colon) [µM],TGI (HCT-116 colon) [µM],TGI (HT29 colon) [µM],TGI (SF-295 CNS) [µM],TGI (HCT-15 colon) [µM],TGI (M14 melanoma) [µM],GI50 (A498 renal) [µM],GI50 (ACHN renal) [µM],GI50 (CAKI-1 renal) [µM],GI50 (HCC-2998 colon) [µM],GI50 (HCT-116 colon) [µM],GI50 (HCT-15 colon) [µM],GI50 (M14 melanoma) [µM],GI50 (SF-295 CNS) [µM]
COC(=O)C1C(C(=O)OC)C2C(=O)C3C(C(=O)OC)C(C(=O)OC)C3C(=O)C12 (configuration not stated),> 100,> 100,> 100,> 100,> 100,> 100,> 100,,,,,,,,,,
COc1cc([C@@H]2c3cc4c(cc3[C@@H](NC(=O)c3ccc(C#N)cc3)C3COC(=O)[C@@H]32)OCO4)cc(OC)c1O (some centres not stated),3.79,1.47,13.2,4.18,3.29,4.23,11.8,15.1,12.4,,,,,,,,
COc1cc(Nc2cnc3ccc(C(F)(F)F)cc3n2)cc(OC)c1OC,,> 100,,> 100,> 100,> 100,91.2,> 100,,,,,,,,,
O=C1/C(=C\c2ccccc2)CN(C(=O)CCN2CCCCC2)C/C1=C/c1ccccc1,7.43,4.29,3.74,2.81,0.709,2.03,3.16,4.12,4.66,,,,,,,,
O=C1NC(=O)c2c1n(Cc1ccccc1)c(=O)n2Cc1ccccc1,77.9,> 100,> 100,> 100,> 100,> 100,> 100,> 100,> 100,,,,,,,,
Cc1ccc2c(c1)CN1c3ccc(C)cc3CN2C1c1ccccc1O,,> 100,> 100,,> 100,> 100,> 100,> 100,> 100,,,,,,,,
NNC(=O)C(=O)N/N=C1/CCCC1C(=O)CCC(=O)Nc1ccc(Cl)cc1 (configuration not stated),> 100,> 100,> 100,> 100,> 100,> 100,> 100,> 100,> 100,,,,,,,,
CC1=N/C(=C\c2ccc(/C=C3/N=C(C)OC3=O)cc2)C(=O)O1,> 100,> 100,> 100,> 100,> 100,> 100,,> 100,> 100,,,,,,,,
COC(=O)CCC(NC(=S)N/N=C/c1cccs1)C(=O)OC (configuration not stated),> 100,> 100,,> 100,> 100,> 100,> 100,> 100,> 100,,,,,,,,
O=C(NC12CC3CCC1CC(C3)C2)[C@@H]1CCCN1C(=O)OCc1ccccc1 (some centres not stated),> 100,> 100,,> 100,> 100,> 100,> 100,> 100,> 100,,,,,,,,
COc1nc2c(c(O)c(C)c(=O)n2OC2OCC(OC(C)=O)C(OC(C)=O)C2OC(C)=O)c(=O)n1C (configuration not stated),,> 100,,> 100,> 100,> 100,> 100,> 100,> 100,,,,,,,,
O=[N+]([O-])c1cccc(C2=NN(c3ccccc3)C3c4cc(Br)ccc4OCC23)c1 (configuration not stated),> 100,> 100,,> 100,> 100,> 100,> 100,,,,,,,,,,
COc1ccc2sc3c(NCCCN)nc4ccccc4c3c(=O)c2c1,5.59,3.07,3.06,3.34,2.85,,3.36,3.05,3.18,1.52,1.69,1.6,1.66,1.5,1.54,1.74,1.79
O=C1[C@@H]2C(c3c(Cl)cccc3Cl)=NO[C@@H]2C(=O)N1c1ccc(Cc2ccc(N3C(=O)[C@H]4C(c5c(Cl)cccc5Cl)=NO[C@H]4C3=O)cc2)cc1,> 100,> 100,> 100,> 100,,> 100,> 100,> 100,> 100,,,,,,,,
O=[N+]([O-])c1ccc(Cl)c2c([N+](=O)[O-])cccc12,,,,> 10,5.32,> 10,> 10,> 10,,,,,,,,,
CCc1cccc(C)c1NC(=O)CCc1nc(=S)[nH][nH]1,,> 100,> 100,> 100,> 100,> 100,> 100,> 100,> 100,,,,,,,,
O=C(NC1C(=O)NNC1c1cccc([N+](=O)[O-])c1)c1ccccc1 (configuration not stated),,> 100,,> 100,> 100,> 100,> 100,,> 100,,,,,,,,
CCCCCCCC(=O)OCC(COC(=O)C(C)(C)C)OC(=O)Cc1ccccc1 (configuration not stated),> 100,> 100,> 100,> 100,> 100,,> 100,> 100,> 100,,,,,,,,
O=[N+]([O-])c1ccccc1C1SCc2nc3ccccc3n21 (configuration not stated),> 100,> 100,> 100,,,> 100,> 100,,,,,,,,,,
Cc1nc2ccccc2nc1CC(=O)C(=O)Nc1ccc(Cl)cc1Cl,> 100,> 100,> 100,> 100,> 100,,> 100,> 100,> 100,,,,,,,,
